Test results from patent US12473250B2, “Molecular design of new antibiotics and antibiotic adjuvants against MCR strains” (priority 2019, dated 2025).
≈ marks a conversion by molar mass, not a printed value.

Experiments:
Type in all cases: cell-based
[1] = tested on: colistin resistant MCR (−) E. Cloacae strain 7023456439; assay: MIC, broth microdilution, compound alone; details: strain 7023456439 E. Cloacae
Outline: (§1)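 Wells held ~5×10^5 CFU/mL of bacteria prepared to 0.5 McFarland from overnight TSA colonies and exposed to serially diluted agents, following modified CLSI microdilution. After 24 h at 35 °C, growth judged by turbidity (OD600 possible); 99% inhibition sets the MIC.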

[2] = tested on: colistin resistant MCR (+) E. Coli strains; assay: MIC, broth microdilution, compound alone; details: compound alone
Outline: as §1

[3] = tested on: colistin resistant MCR (−) E. Coli strains; assay: MIC, broth microdilution, compound alone
Outline: as §1

[4] = tested on: colistin resistant MCR (−) E. Cloacae strain 7023456439; assay: Synergy study: colistin MIC in the presence of compound; details: strain 7023456439 E. Cloacae
Outline: (§2)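 After 24 hours, MIC was read as the lowest concentration without visible growth. Drugs were tested singly and in combination by CLSI broth microdilution, equal-amount colistin:LC compound mixtures serially diluted 2-fold at a fixed synergy concentration.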

[5] = tested on: colistin resistant MCR (+) E. Coli strains; assay: as above
Outline: as §2

[6] = tested on: colistin resistant MCR (−) E. Coli strains; assay: as above
Outline: as §2

[7] = compound at 10 μg (Table 2a: 10 ug/ml)
[8] = strain 6075066346, MCR(+), compound at 10 μg (Table 2a: 10 ug/ml)
[9] = strain 6083655967, MCR(+), compound at 10 μg (Table 2a: 10 ug/ml)
[10] = strain 6103645107, MCR(+), compound at 10 μg (Table 2a: 10 ug/ml)
[11] = strain 6123520276, MCR(+), compound at 10 μg (Table 2a: 10 ug/ml)
[12] = strain 7013177695, MCR(+), compound at 10 μg (Table 2a: 10 ug/ml)
[13] = strain 7023436560, MCR(+), compound at 10 μg (Table 2a: 10 ug/ml)
[14] = strain 7023444207, MCR(+), compound at 10 μg (Table 2a: 10 ug/ml)
[15] = strain 6083672926, MCR(−), compound at 10 μg (Table 2a: 10 ug/ml)
[16] = strain 7023446108, MCR(−), compound at 10 μg (Table 2a: 10 ug/ml)
[17] = strain 7033607097, MCR(−), compound at 10 μg (Table 2a: 10 ug/ml)
[18] = compound at 5 μg (Table 2a: 5 ug/ml)
[19] = strain 6083672926, MCR(−), compound at 5 μg (Table 2a: 5 ug/ml)
[20] = strain 7023446108, MCR(−), compound at 5 μg (Table 2a: 5 ug/ml)
[21] = strain 7033607097, MCR(−), compound at 5 μg (Table 2a: 5 ug/ml)
[22] = strain 7028444207 (Table 1b), MCR (+)

| SMILES | MIC [1] | MIC ([2]; strain 6075066346, MCR (+)) | MIC ([2]; strain 6083655967, MCR (+)) | MIC ([2]; strain 6103645107, MCR (+)) | MIC ([2]; strain 6123520276, MCR (+)) | MIC ([2]; strain 7013177695, MCR (+)) | MIC ([2]; strain 7023436560, MCR (+)) | MIC ([2]; strain 7023444207, MCR (+)) | MIC ([3]; strain 6083672926, MCR (−)) | MIC ([3]; strain 7023446108, MCR (−)) | MIC ([3]; strain 7033607097, MCR (−)) | Colistin MIC in the presence of the compound [4, 7] | Colistin MIC in the presence of the compound [5, 8] | Colistin MIC in the presence of the compound [5, 9] | Colistin MIC in the presence of the compound [5, 10] | Colistin MIC in the presence of the compound [5, 14] | Colistin MIC in the presence of the compound [6, 15] | Colistin MIC in the presence of the compound [6, 16] | Colistin MIC in the presence of the compound [6, 17] | MIC [2, 22] | further results |
| --- | --- | --- | --- | --- | --- | --- | --- | --- | --- | --- | --- | --- | --- | --- | --- | --- | --- | --- | --- | --- | --- |
| CN(C)CCCN(CCCCOc1ccc(C2COc3c(ccc4c3C=CC(C)(C)O4)C2)c(OCCCCN(CCCN(C)C)CCCN(C)C)c1)CCCN(C)C (stereo not shown) [LC095] | >50 µg/mL | 50 µg/mL (≈ 61.9 µM) | 50 µg/mL (≈ 61.9 µM) | 25 µg/mL (≈ 31 µM) | 50 µg/mL (≈ 61.9 µM) | 25 µg/mL (≈ 31 µM) | 25 µg/mL (≈ 31 µM) | 25 µg/mL (≈ 31 µM) | 25 µg/mL (≈ 31 µM) | 25 µg/mL (≈ 31 µM) | 25 µg/mL (≈ 31 µM) | >12.5 µg/mL | 3.125 µg/mL | 3.125 µg/mL | 3.125 µg/mL | 1.56 µg/mL | 12.5 µg/mL | 3.125 µg/mL | 3.125 µg/mL |  | Colistin MIC in the presence of the compound [5, 11]: 1.56 µg/mL; Colistin MIC in the presence of the compound [5, 12]: 3.125 µg/mL; Colistin MIC in the presence of the compound [5, 13]: 3.125 µg/mL |
| CN(C)CCCN(C)CCCCOc1ccc(C2COc3c(ccc4c3C=CC(C)(C)O4)C2)c(OCCCCN(C)CCCN(C)C)c1 (stereo not shown) [LC096] | >25 µg/mL | 25 µg/mL (≈ 37.6 µM) | 25 µg/mL (≈ 37.6 µM) | 12.5 µg/mL (≈ 18.8 µM) | 25 µg/mL (≈ 37.6 µM) | 25 µg/mL (≈ 37.6 µM) | 25 µg/mL (≈ 37.6 µM) | 25 µg/mL (≈ 37.6 µM) | 12.5 µg/mL (≈ 18.8 µM) | 25 µg/mL (≈ 37.6 µM) | 12.5 µg/mL (≈ 18.8 µM) |  |  |  |  |  |  |  |  |  | Colistin MIC in the presence of the compound [4, 18]: >25 µg/mL; Colistin MIC in the presence of the compound ([5]; strain 6075066346, MCR(+), compound at 5 μg (Table 2a: 5 ug/ml)): <0.195 µg/mL; Colistin MIC in the presence of the compound ([5]; strain 6083655967, MCR(+), compound at 5 μg (Table 2a: 5 ug/ml)): <0.195 µg/mL; Colistin MIC in the presence of the compound ([5]; strain 6103645107, MCR(+), compound at 5 μg (Table 2a: 5 ug/ml)): <0.195 µg/mL; Colistin MIC in the presence of the compound ([5]; strain 6123520276, MCR(+), compound at 5 μg (Table 2a: 5 ug/ml)): <0.195 µg/mL; Colistin MIC in the presence of the compound ([5]; strain 7013177695, MCR(+), compound at 5 μg (Table 2a: 5 ug/ml)): <0.195 µg/mL; Colistin MIC in the presence of the compound ([5]; strain 7023436560, MCR(+), compound at 5 μg (Table 2a: 5 ug/ml)): <0.195 µg/mL; Colistin MIC in the presence of the compound ([5]; strain 7023444207, MCR(+), compound at 5 μg (Table 2a: 5 ug/ml)): <0.195 µg/mL; Colistin MIC in the presence of the compound [6, 19]: <0.195 µg/mL; Colistin MIC in the presence of the compound [6, 20]: <0.195 µg/mL; Colistin MIC in the presence of the compound [6, 21]: <0.195 µg/mL |
| O=C(C=Cc1ccc(OCCCCN2CCNCCNCCNCC2)cc1)c1ccc(OCCCCN2CCNCCNCCNCC2)cc1O.[Cl][Zn][Cl].[Cl][Zn][Cl] [LC304] | >50 µg/mL | >50 µg/mL | >50 µg/mL | >50 µg/mL | >50 µg/mL | >50 µg/mL | >50 µg/mL |  | >50 µg/mL | >50 µg/mL | >50 µg/mL | >12.5 µg/mL |  | 1.56 µg/mL |  | 1.56 µg/mL | 12.5 µg/mL | 3.125 µg/mL | 3.125 µg/mL | >50 µg/mL | Colistin MIC in the presence of the compound [4, 18]: >12.5 µg/mL; Colistin MIC in the presence of the compound [6, 19]: 12.5 µg/mL; Colistin MIC in the presence of the compound [6, 20]: 3.125 µg/mL; Colistin MIC in the presence of the compound [6, 21]: 3.125 µg/mL |
| Cc1cc(OCCCCC[N+](C)(C)C)cc(OCCCCC[N+](C)(C)C)c1 [LC310] | >50 µg/mL | >50 µg/mL | >50 µg/mL | >50 µg/mL | >50 µg/mL | >50 µg/mL | >50 µg/mL |  | >50 µg/mL | >50 µg/mL | >50 µg/mL | 6.25 µg/mL | 6.25 µg/mL | 6.25 µg/mL | 6.25 µg/mL | 6.25 µg/mL | 6.25 µg/mL | 6.25 µg/mL | 6.25 µg/mL | >50 µg/mL | Colistin MIC in the presence of the compound [5, 11]: 6.25 µg/mL; Colistin MIC in the presence of the compound [5, 12]: 6.25 µg/mL; Colistin MIC in the presence of the compound [5, 13]: 6.25 µg/mL |
| CC(C)=CCc1c(OCCCCC[N+](C)(C)C)ccc(C(=O)/C=C/c2ccc(OCCCCC[N+](C)(C)C)cc2)c1O [LC311] | 6.25 µg/mL | 3.125 µg/mL | 3.125 µg/mL | 3.125 µg/mL | 6.25 µg/mL | 6.25 µg/mL | 3.125 µg/mL |  | 3.125 µg/mL | 3.125 µg/mL | 6.25 µg/mL |  |  |  |  |  |  |  |  | 3.125 µg/mL | Colistin MIC in the presence of the compound ([4]; compound at 2 μg): >12.5 µg/mL; Colistin MIC in the presence of the compound ([5]; strain 6075066346, MCR(+), compound at 2 μg): 0.78 µg/mL; Colistin MIC in the presence of the compound ([5]; strain 6083655967, MCR(+), compound at 2 μg): 0.39 µg/mL; Colistin MIC in the presence of the compound ([5]; strain 6103645107, MCR(+), compound at 2 μg): 0.39 µg/mL; Colistin MIC in the presence of the compound ([5]; strain 6123520276, MCR(+), compound at 2 μg): 0.39 µg/mL; Colistin MIC in the presence of the compound ([5]; strain 7013177695, MCR(+), compound at 2 μg): 0.78 µg/mL; Colistin MIC in the presence of the compound ([5]; strain 7023436560, MCR(+), compound at 2 μg): 0.39 µg/mL; Colistin MIC in the presence of the compound ([5]; strain 7023444207, MCR(+), compound at 2 μg): 0.39 µg/mL; Colistin MIC in the presence of the compound ([6]; strain 6083672926, MCR(−), compound at 2 μg): 0.39 µg/mL; Colistin MIC in the presence of the compound ([6]; strain 7023446108, MCR(−), compound at 2 μg): 0.78 µg/mL; Colistin MIC in the presence of the compound ([6]; strain 7033607097, MCR(−), compound at 2 μg): 0.195 µg/mL |
